According to patent publication US9346809B2 (LEO PHARMA A/S, priority 2009, dated 2016):
Like-named read-outs stand apart in the source and are kept apart here.

Assays:
Assay type in all cases: biochemical
[1] = molecular target: T1, JAK2 (catalytic domain, His-tag) (Homo sapiens, UniProt O60674); assay: JAK kinase assay (HTRF, phosphorylation of TK substrate-biotin), JAK2; conditions: ATP at Km (4 μM)
T1 construct: All four purified enzymes contain only the catalytic domain; His (N); purchased Carna Biosciences, Inc; host or cells: baculovirus expression system
T1 sequence (O60674 849-1124 limits assumed): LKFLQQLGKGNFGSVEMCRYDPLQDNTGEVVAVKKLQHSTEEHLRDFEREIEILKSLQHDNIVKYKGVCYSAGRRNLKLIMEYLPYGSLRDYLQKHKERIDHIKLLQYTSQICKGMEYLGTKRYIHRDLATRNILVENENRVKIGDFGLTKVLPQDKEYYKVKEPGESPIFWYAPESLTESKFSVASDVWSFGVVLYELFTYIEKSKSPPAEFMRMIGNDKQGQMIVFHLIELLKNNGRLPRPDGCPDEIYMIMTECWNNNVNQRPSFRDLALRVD
Procedure, shortened: (§1)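 Catalytic-domain kinases phosphorylated 1 μM biotin-TK substrate at ATP Km (JAK1 7 μM, JAK2 4 μM, JAK3 2 μM, TYK2 13 μM) in Hepes pH 7.0 with DTT and MgCl2, for 20-30 min at RT; JAK1 and TYK2 also had 50 nM SEB. Detection was by HTRF (streptavidin-XL665/Cryptate antibody) overnight, giving EC50.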

[2] = molecular target: T2, TYK2 (aa 871-1187, catalytic domain, GST-tag) (Homo sapiens, UniProt P29597); assay: JAK kinase assay (HTRF, phosphorylation of TK substrate-biotin), TYK2; conditions: ATP at Km (13 μM)
T2 construct: JAK1 (aa 850-1154) and TYK2 (aa 871-1187) are expressed with an N-terminally fused GST-tag; GST (N); purchased Carna Biosciences, Inc; host or cells: baculovirus expression system
T2 sequence (P29597 871-1187): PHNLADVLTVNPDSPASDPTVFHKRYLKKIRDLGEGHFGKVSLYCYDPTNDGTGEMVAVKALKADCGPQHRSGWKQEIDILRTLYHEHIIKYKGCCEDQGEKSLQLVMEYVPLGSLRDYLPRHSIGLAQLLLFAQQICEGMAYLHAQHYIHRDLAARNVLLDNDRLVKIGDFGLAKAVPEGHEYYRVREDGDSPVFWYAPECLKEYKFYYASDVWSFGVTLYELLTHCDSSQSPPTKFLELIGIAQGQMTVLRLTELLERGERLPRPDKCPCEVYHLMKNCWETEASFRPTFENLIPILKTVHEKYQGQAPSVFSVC
Procedure, shortened: as §1

[3] = molecular target: T3, JAK1 (aa 850-1154, catalytic domain, GST-tag) (Homo sapiens, UniProt P23458); assay: JAK kinase assay (HTRF, phosphorylation of TK substrate-biotin), JAK1; conditions: ATP at Km (7 μM)
T3 construct: JAK1 (aa 850-1154) and TYK2 (aa 871-1187) are expressed with an N-terminally fused GST-tag; GST (N); purchased Carna Biosciences, Inc; host or cells: baculovirus expression system
T3 sequence (P23458 850-1154): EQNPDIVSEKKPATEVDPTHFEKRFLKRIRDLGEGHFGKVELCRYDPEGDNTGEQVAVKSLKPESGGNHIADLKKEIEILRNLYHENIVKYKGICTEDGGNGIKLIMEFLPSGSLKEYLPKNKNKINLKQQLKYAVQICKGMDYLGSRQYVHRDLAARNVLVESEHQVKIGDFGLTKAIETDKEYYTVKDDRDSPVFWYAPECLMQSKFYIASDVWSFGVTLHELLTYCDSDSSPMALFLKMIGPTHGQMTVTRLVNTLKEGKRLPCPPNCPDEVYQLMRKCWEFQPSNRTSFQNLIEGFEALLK
Procedure, shortened: as §1

[4] = molecular target: T4, JAK3 (catalytic domain, His-tag) (Homo sapiens, UniProt P52333); assay: JAK kinase assay (HTRF, phosphorylation of TK substrate-biotin), JAK3; conditions: ATP at Km (2 μM)
T4 construct: All four purified enzymes contain only the catalytic domain; His (N); purchased Carna Biosciences, Inc; host or cells: baculovirus expression system
T4 sequence (P52333 822-1111 limits assumed): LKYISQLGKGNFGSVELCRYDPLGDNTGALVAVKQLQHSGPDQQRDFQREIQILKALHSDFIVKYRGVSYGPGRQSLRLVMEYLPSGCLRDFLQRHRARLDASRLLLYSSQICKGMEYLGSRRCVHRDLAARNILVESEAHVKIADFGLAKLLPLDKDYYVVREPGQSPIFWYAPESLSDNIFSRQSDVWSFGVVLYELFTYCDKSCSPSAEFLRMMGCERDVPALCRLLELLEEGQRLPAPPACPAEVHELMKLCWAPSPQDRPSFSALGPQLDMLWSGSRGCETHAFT
Procedure, shortened: as §1

[5] = read-out: JAK2 kinase inhibitory activity (EC50 indicator)
[6] = read-out: TYK2 kinase inhibitory activity (EC50 indicator)
[7] = read-out: JAK1 kinase inhibitory activity (EC50 indicator)
[8] = read-out: JAK3 kinase inhibitory activity (EC50 indicator)
[9] = HTRF assay, read-out: JAK2 kinase inhibitory activity (EC50 indicator)
[10] = HTRF assay, read-out: TYK2 kinase inhibitory activity (EC50 indicator)
[11] = HTRF assay, read-out: JAK1 kinase inhibitory activity (EC50 indicator)
[12] = HTRF assay, read-out: JAK3 kinase inhibitory activity (EC50 indicator)

## CS(=O)(=O)c1ccc(C(=O)N2CCN(c3ncnc4[nH]ccc34)CC23CC3)c(F)c1 [Example 183, (2-Fluoro-4-methanesulfonyl-phenyl)-[7-(7H-pyrrolo[2,3-d]pyrimidin-4-yl)-4,7-diaza-spiro[2.5]oct-4-yl]-methanone]
[1]; [5]
  EC50: < 0.1 µM
[2]; [6]
  EC50: < 0.1 µM
[3]; [7]
  EC50: < 0.1 µM
[4]; [8]
  EC50: < 0.1 µM

## NS(=O)(=O)CCCC(=O)N1CCN(c2ncnc3[nH]ccc23)CC12CC2 [Example 143, 4-Oxo-4-[7-(7H-pyrrolo[2,3-d]pyrimidin-4-yl)-4,7-diaza-spiro[2.5]oct-4-yl]-butane-1-sulfonic acid amide]
[1]; [5]
  EC50: < 0.1 µM
[2]; [6]
  EC50: > 0.5 µM
[3]; [7]
  EC50: < 0.1 µM
[4]; [8]
  EC50: < 0.1 µM

## O=C(c1cccnc1)N1[C@@H]2CC[C@H]1CN(c1ncnc3[nH]ccc13)C2 [Example 57, Pyridin-3-yl-[3-(7H-pyrrolo[2,3-d]pyrimidin-4-yl)-3,8-diazabicyclo[3.2.1]oct-8-yl]methanone]
[1]; [5]
  EC50: 0.1 to 0.5 µM
[2]; [6]
  EC50: > 0.5 µM
[3]; [7]
  EC50: 0.1 to 0.5 µM
[4]; [8]
  EC50: > 0.5 µM

## N#Cc1cc(CC(=O)N2CCN(c3ncnc4[nH]ccc34)CC23CC3)ccc1F [Example 66, 2-Fluoro-5-{2-oxo-2-[7-(7H-pyrrolo[2,3-d]pyrimidin-4-yl)-4,7-diaza-spiro[2.5]oct-4-yl]-ethyl}-benzonitrile]
[1]; [5]
  EC50: < 0.1 µM
[2]; [6]
  EC50: > 0.5 µM
[3]; [7]
  EC50: < 0.1 µM
[4]; [8]
  EC50: 0.1 to 0.5 µM

## CS(=O)(=O)c1ccc(CC(=O)N2CCN(c3ncnc4[nH]ccc34)CC23CC3)cc1 [Example 420, 2-(4-Methanesulfonyl-phenyl)-1-[7-(7H-pyrrolo[2,3-d]pyrimidin-4-yl)-4,7-diaza-spiro[2.5]oct-4-yl]-ethanone]
[1]; [9]
  EC50: < 0.1 µM
[2]; [10]
  EC50: > 0.5 µM
[3]; [11]
  EC50: < 0.1 µM
[4]; [12]
  EC50: < 0.1 µM

## N#CCOc1cccc(C(=O)N2[C@@H]3CC[C@@H]2CN(c2ncnc4[nH]ccc24)C3)c1 [Example 343, {3-[3-(7H-Pyrrolo[2,3-d]pyrimidin-4-yl)-3,8-diaza-bicyclo[3.2.1]octane-8-carbonyl]-phenoxy}-acetonitrile]
[1]; [9]
  EC50: < 0.1 µM
[2]; [10]
  EC50: > 0.5 µM
[3]; [11]
  EC50: < 0.1 µM
[4]; [12]
  EC50: 0.1 to 0.5 µM

## O=C(c1ccncc1)N1CCN(c2ccnc3[nH]ccc23)CC12CC2 [Example 224, Pyridin-4-yl-[7-(1H-pyrrolo[2,3-b]pyridin-4-yl)-4,7-diaza-spiro[2.5]oct-4-yl]-methanone]
[1]; [9]
  EC50: 0.1 to 0.5 µM
[2]; [10]
  EC50: > 0.5 µM
[3]; [11]
  EC50: 0.1 to 0.5 µM
[4]; [12]
  EC50: > 0.5 µM

## N#CCN1CCCC(C(=O)N2CCN(c3ncnc4[nH]ccc34)CC23CC3)C1 (stereo not shown) [Example 94, {3-[7-(7H-Pyrrolo[2,3-d]pyrimidin-4-yl)-4,7-diaza-spiro[2.5]octane-4-carbonyl]-piperidin-1-yl}-acetonitrile]
[1]; [5]
  EC50: < 0.1 µM
[2]; [6]
  EC50: 0.1 to 0.5 µM
[3]; [7]
  EC50: 0.1 to 0.5 µM
[4]; [8]
  EC50: 0.1 to 0.5 µM

## NS(=O)(=O)c1cccc(C(=O)N2CCN(c3ncnc4[nH]ccc34)CC23CC3)c1 [Example 371, 3-[7-(7H-Pyrrolo[2,3-d]pyrimidin-4-yl)-4,7-diaza-spiro[2.5]octane-4-carbonyl]-benzenesulfonamide]
[1]; [9]
  EC50: < 0.1 µM
[2]; [10]
  EC50: < 0.1 µM
[3]; [11]
  EC50: < 0.1 µM
[4]; [12]
  EC50: < 0.1 µM

## COc1cnc2[nH]ccc2c1N1CCN(C(=O)c2cc3cc(C#N)ccc3[nH]2)C2(CC2)C1 [Example 291, 2-[7-(5-Methoxy-1H-pyrrolo[2,3-b]pyridin-4-yl)-4,7-diaza-spiro[2.5]octane-4-carbonyl]-1H-indole-5-carbonitrile]
[1]; [9]
  EC50: > 0.5 µM
[2]; [10]
  EC50: > 0.5 µM
[3]; [11]
  EC50: > 0.5 µM
[4]; [12]
  EC50: 0.1 to 0.5 µM

## COc1csc(C(=O)N2CCN(c3ncnc4[nH]ccc34)CC23CC3)c1 [Example 386, (4-Methoxy-thiophen-2-yl)-[7-(7H-pyrrolo[2,3-d]pyrimidin-4-yl)-4,7-diaza-spiro[2.5]oct-4-yl]-methanone]
[1]; [9]
  EC50: < 0.1 µM
[2]; [10]
  EC50: < 0.1 µM
[3]; [11]
  EC50: < 0.1 µM
[4]; [12]
  EC50: < 0.1 µM

## CC(C)(C#N)C(=O)N1[C@@H]2CC[C@@H]1CN(c1ncnc3[nH]ccc13)C2 [Example 239, 2,2-Dimethyl-3-oxo-3-[3-(7H-pyrrolo[2,3-d]pyrimidin-4-yl)-3,8-diaza-bicyclo[3.2.1]oct-8-yl]-propionitrile]
[1]; [9]
  EC50: 0.1 to 0.5 µM
[2]; [10]
  EC50: > 0.5 µM
[3]; [11]
  EC50: 0.1 to 0.5 µM
[4]; [12]
  EC50: 0.1 to 0.5 µM

## O=C([C@H]1CC[C@H](O)CC1)N1CCN(c2ncnc3[nH]ccc23)CC12CC2 [Example 158, (4-Hydroxy-cyclohexyl)-[7-(7H-pyrrolo[2,3-d]pyrimidin-4-yl)-4,7-diaza-spiro[2.5]oct-4-yl]-methanone]
[1]; [5]
  EC50: < 0.1 µM
[2]; [6]
  EC50: > 0.5 µM
[3]; [7]
  EC50: 0.1 to 0.5 µM
[4]; [8]
  EC50: 0.1 to 0.5 µM

## O=C(c1cc2cc(F)ccc2[nH]1)N1CCN(c2ncnc3[nH]ccc23)CC12CC2 [Example 361, (5-Fluoro-1H-indol-2-yl)-[7-(7H-pyrrolo[2,3-d]pyrimidin-4-yl)-4,7-diaza-spiro[2.5]oct-4-yl]-methanone]
[1]; [9]
  EC50: < 0.1 µM
[2]; [10]
  EC50: < 0.1 µM
[3]; [11]
  EC50: < 0.1 µM
[4]; [12]
  EC50: < 0.1 µM

## Cc1sc(C(=O)N2CCN(c3ncnc4[nH]ccc34)CC23CC3)cc1S(N)(=O)=O [Example 374, 2-Methyl-5-[7-(7H-pyrrolo[2,3-d]pyrimidin-4-yl)-4,7-diaza-spiro[2.5]octane-4-carbonyl]-thiophene-3-sulfonic acid amide]
[1]; [9]
  EC50: < 0.1 µM
[2]; [10]
  EC50: < 0.1 µM
[3]; [11]
  EC50: < 0.1 µM
[4]; [12]
  EC50: < 0.1 µM

## N#Cc1ccc(CC(=O)N2CCN(c3nc(N)nc4[nH]ccc34)CC23CC3)cc1 [Example 312, 4-{2-[7-(2-Amino-7H-pyrrolo[2,3-d]pyrimidin-4-yl)-4,7-diaza-spiro[2.5]oct-4-yl]-2-oxo-ethyl}-benzonitrile]
[1]; [9]
  EC50: < 0.1 µM
[2]; [10]
  EC50: 0.1 to 0.5 µM
[3]; [11]
  EC50: < 0.1 µM
[4]; [12]
  EC50: < 0.1 µM

## O=C(c1cccc(OC(F)(F)F)c1)N1CCN(c2ncnc3[nH]ccc23)CC12CC2 [Example 160, [7-(7H-Pyrrolo[2,3-d]pyrimidin-4-yl)-4,7-diaza-spiro[2.5]oct-4-yl]-(3-trifluoromethoxy-phenyl)-methanone]
[1]; [5]
  EC50: < 0.1 µM
[2]; [6]
  EC50: 0.1 to 0.5 µM
[3]; [7]
  EC50: < 0.1 µM
[4]; [8]
  EC50: 0.1 to 0.5 µM

## NS(=O)(=O)c1ccc(/C=C/C(=O)N2CCN(c3ncnc4[nH]ccc34)CC23CC3)cc1 [Example 197, 4-{3-Oxo-3-[7-(7H-pyrrolo[2,3-d]pyrimidin-4-yl)-4,7-diaza-spiro[2.5]oct-4-0]-propenyl}-benzenesulfonamide]
[1]; [5]
  EC50: < 0.1 µM
[2]; [6]
  EC50: < 0.1 µM
[3]; [7]
  EC50: < 0.1 µM
[4]; [8]
  EC50: < 0.1 µM

## N#CCCCC(=O)N1CCN(c2nc(N)nc3[nH]ccc23)CC12CC2 [Example 310, 5-[7-(2-Amino-7H-pyrrolo[2,3-d]pyrimidin-4-yl)-4,7-diaza-spiro[2.5]oct-4-yl]-5-oxo-pentanenitrile]
[1]; [9]
  EC50: < 0.1 µM
[2]; [10]
  EC50: > 0.5 µM
[3]; [11]
  EC50: < 0.1 µM
[4]; [12]
  EC50: < 0.1 µM

## CC(C)(C)OC(=O)N1[C@@H]2CC[C@H]1CN(c1ncnc3[nH]ccc13)C2 [Example 9, 3-(7H-Pyrrolo[2,3-d]pyrimidin-4-yl)-3,8-diaza-bicyclo[3.2.1]octane-8-carboxylic acid tert-butyl ester]
[1]; [5]
  EC50: < 0.1 µM
[2]; [6]
  EC50: > 0.5 µM
[3]; [7]
  EC50: 0.1 to 0.5 µM
[4]; [8]
  EC50: 0.1 to 0.5 µM

## Cc1cncc(C(=O)N2[C@@H]3CC[C@H]2CN(c2ncnc4[nH]ccc24)C3)n1 [Example 73, (6-Methyl-pyrazin-2-yl)-[3-(7H-pyrrolo[2,3-d]pyrimidin-4-yl)-3,8-diaza-bicyclo[3.2.1]oct-8-yl]-methanone]
[1]; [5]
  EC50: 0.1 to 0.5 µM
[2]; [6]
  EC50: > 0.5 µM
[3]; [7]
  EC50: < 0.1 µM
[4]; [8]
  EC50: 0.1 to 0.5 µM

## O=C(CNc1ccccc1)N1CCN(c2ncnc3[nH]ccc23)CC12CC2 [Example 451, 2-Phenylamino-1-[7-(7H-pyrrolo[2,3-d]pyrimidin-4-yl)-4,7-diaza-spiro[2.5]oct-4-yl]-ethanone]
[1]; HTRF assay, read-out: JAK2 kinase inhibitory activity (EC50)
  EC50: < 0.1 µM
[2]; HTRF assay, read-out: TYK2 kinase inhibitory activity (EC50)
  EC50: > 0.5 µM
[3]; HTRF assay, read-out: JAK1 kinase inhibitory activity (EC50)
  EC50: < 0.1 µM
[4]; HTRF assay, read-out: JAK3 kinase inhibitory activity (EC50)
  EC50: 0.1 to 0.5 µM
